Structures can show the parent of a compound that is named as a salt. Where two headings read alike, the source gives them in different places.
How the values were obtained:
Format in all cases: biochemical
[1] = target: T1, recombinant human MAO-A (monoamine oxidase-A) (Homo sapiens, UniProt P21397); experiment: Activity on recombinant human MAO-A, Amplex Red method, 0.5 mM tyramine substrate; conditions: read-out: Inhibitory Activity (IC50, nM) MAO-A
T1 construct: purchased Sigma-Aldrich
T1 sequence (P21397 1-527): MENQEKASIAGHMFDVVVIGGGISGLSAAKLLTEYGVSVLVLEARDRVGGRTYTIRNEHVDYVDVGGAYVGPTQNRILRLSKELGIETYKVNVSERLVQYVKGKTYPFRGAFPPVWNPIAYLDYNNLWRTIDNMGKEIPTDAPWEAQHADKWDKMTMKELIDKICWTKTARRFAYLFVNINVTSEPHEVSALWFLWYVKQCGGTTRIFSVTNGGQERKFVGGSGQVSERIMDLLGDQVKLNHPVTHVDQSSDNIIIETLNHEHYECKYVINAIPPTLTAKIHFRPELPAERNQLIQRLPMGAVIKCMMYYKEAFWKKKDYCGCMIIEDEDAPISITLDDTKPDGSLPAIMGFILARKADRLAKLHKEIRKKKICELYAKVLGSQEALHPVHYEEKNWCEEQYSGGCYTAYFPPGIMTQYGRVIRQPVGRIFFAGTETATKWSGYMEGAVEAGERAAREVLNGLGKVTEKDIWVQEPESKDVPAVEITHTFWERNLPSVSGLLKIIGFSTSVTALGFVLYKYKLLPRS
Outline: (§1)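 HRP-coupled Amplex Red H2O2 assay, 50 mM sodium phosphate pH 7.4; compounds (8-point 1:3 series, final DMSO <1%) preincubated with enzyme 30 min at 37° C, then 200 uM Amplex Red, 1 U/mL HRP and substrate (MAO-A 0.5 mM tyramine; MAO-B 1 mM benzylamine) added. Resorufin fluorescence (ex 544/em 590 nm) read over 1-2 h; IC50 from four-parameter logistic fit.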

[2] = target: T2, recombinant human MAO-B (monoamine oxidase-B) (Homo sapiens, UniProt P27338); experiment: Activity on recombinant human MAO-B, Amplex Red method, 1 mM benzylamine substrate; conditions: read-out: Inhibitory Activity (IC50, nM) MAO-B
T2 construct: purchased Sigma-Aldrich
T2 sequence (P27338 1-520): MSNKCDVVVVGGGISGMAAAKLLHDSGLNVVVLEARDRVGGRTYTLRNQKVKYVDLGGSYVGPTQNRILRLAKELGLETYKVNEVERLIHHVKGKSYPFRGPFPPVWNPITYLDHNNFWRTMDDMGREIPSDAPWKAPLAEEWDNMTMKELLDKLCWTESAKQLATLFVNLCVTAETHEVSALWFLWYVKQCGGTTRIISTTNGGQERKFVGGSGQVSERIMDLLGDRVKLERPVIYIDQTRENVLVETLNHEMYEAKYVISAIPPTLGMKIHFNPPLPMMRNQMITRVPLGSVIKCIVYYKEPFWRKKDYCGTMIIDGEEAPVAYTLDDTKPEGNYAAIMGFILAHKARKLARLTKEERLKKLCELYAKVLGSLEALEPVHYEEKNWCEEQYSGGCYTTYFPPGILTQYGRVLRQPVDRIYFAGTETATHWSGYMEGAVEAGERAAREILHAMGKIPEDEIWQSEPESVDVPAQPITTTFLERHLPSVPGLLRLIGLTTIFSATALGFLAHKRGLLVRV
Outline: as §1

[3] = target: T3, recombinant human DAO (diamine oxidase) (Homo sapiens, UniProt P19801); experiment: Activity on recombinant human DAO, Amplex Red method, 1 mM putrescine substrate; conditions: recombinant human DAO, read-out: Inhibitory Activity (IC50, nM) DAO
T3 construct: purchased R&D systems
T3 sequence (P19801 20-751): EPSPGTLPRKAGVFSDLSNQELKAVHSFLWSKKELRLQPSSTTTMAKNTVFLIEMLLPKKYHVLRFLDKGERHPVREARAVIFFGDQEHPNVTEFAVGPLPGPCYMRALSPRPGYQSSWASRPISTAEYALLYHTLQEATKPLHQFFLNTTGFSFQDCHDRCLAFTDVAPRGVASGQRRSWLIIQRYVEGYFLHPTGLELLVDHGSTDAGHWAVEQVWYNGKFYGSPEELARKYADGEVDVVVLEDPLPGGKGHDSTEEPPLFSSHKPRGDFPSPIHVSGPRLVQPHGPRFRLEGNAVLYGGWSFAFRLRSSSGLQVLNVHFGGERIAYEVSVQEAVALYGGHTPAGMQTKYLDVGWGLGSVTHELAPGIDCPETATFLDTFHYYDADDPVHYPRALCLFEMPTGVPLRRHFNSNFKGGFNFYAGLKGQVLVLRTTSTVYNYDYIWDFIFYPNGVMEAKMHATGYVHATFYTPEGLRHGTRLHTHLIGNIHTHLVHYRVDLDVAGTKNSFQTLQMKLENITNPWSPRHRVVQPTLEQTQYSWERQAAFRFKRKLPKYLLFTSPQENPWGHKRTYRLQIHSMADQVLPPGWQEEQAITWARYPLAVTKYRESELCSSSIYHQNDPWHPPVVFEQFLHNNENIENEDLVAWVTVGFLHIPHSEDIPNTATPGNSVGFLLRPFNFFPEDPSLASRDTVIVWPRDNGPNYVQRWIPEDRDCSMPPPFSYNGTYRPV
Outline: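 Inhibition of recombinant human DAO (diamine oxidase, R&D systems) was assessed with the Amplex Red Hydrogen Peroxide Assay Kit. Hydrogen peroxide produced from 1 mM putrescine was detected through an HRP-coupled reaction that converts Amplex Red into fluorescent resorufin, read at 544 nm excitation and 590 nm emission. IC50 values came from four-parameter logistic fits in GraphPad Prism.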

recombinant human VAP-1 = target: T4, recombinant human VAP-1 (Homo sapiens, UniProt Q16853); experiment: Activity on recombinant human VAP-1, Amplex Red HRP-coupled hydrogen peroxide assay, benzylamine substrate; conditions: recombinant human VAP-1, benzylamine substrate, read-out: Inhibitory Activity (IC50, nM) human VAP-1
T4 construct: purchased R&D systems
T4 sequence (Q16853 1-763): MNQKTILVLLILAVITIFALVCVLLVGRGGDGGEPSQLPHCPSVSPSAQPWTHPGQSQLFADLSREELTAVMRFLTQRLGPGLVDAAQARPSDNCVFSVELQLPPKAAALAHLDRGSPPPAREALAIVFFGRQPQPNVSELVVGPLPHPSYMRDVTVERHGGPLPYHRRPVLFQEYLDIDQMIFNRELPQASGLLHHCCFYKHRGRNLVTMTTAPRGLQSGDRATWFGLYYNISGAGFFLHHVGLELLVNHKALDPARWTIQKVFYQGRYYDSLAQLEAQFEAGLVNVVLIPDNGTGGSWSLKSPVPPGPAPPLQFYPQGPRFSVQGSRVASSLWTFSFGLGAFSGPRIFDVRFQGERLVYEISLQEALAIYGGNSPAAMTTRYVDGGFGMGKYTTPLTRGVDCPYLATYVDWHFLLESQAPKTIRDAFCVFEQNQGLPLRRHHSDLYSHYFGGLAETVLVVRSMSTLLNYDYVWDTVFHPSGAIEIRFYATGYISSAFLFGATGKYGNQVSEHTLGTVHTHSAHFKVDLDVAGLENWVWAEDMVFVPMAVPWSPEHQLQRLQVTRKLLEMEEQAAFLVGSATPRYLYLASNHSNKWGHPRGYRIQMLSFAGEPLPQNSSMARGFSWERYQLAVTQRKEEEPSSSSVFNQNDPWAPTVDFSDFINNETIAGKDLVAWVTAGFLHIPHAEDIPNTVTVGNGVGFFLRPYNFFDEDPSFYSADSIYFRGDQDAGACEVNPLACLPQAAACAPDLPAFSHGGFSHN
Outline: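 8-point 1:3 dilutions, final DMSO <1%; 30 min enzyme preincubation, 37 °C, pH 7.4 phosphate. Start: 1 mM benzylamine + 200 uM Amplex Red + 1 U/mL HRP. Read ex544/em590 over 1-2 h; % rate decrease vs DMSO control, 4-parameter logistic IC50.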

[4] = 1 mM putrescine, * = between 10 and 100 nM, ** = between 300 and 1000 nM

Compound | IC50 ([1]; 0.5 mM tyramine substrate) [nM] | IC50 ([2]; 1 mM benzylamine substrate) [nM] | IC50 ([3]; 1 mM putrescine substrate) [nM] | IC50 (recombinant human VAP-1) [nM] | IC50 ([1]; 0.5 mM tyramine) [nM] | IC50 ([2]; 1 mM benzylamine) [nM] | IC50 [3, 4] [nM] | IC50 (recombinant human VAP-1; 30 min preincubation at 37° C.) [nM]
Cc1cc(-c2cc(C)c3c(c2)CCC(=O)N3)cnc1-n1cnn(C/C(=C/F)CN)c1=O [Example 154, 6-(6-{1-[(2E)-2-(aminomethyl)-3-fluoroprop-2-en-1-yl]-5-oxo-1,5-dihydro-4H-1,2,4-triazol-4-yl}-5-methylpyridin-3-yl)-8-methyl-3,4-dihydroquinolin-2(1H)-one hydrochloride] | > 100000 | 3000 | 190 | 0.3 | – | – | – | –
NC/C(=C\F)Cn1ncn(-c2ncc(-c3ccc4c(c3)NCC4=O)cc2F)c1=O [Example 163, 6-(6-{1-[(2E)-2-(aminomethyl)-3-fluoroprop-2-en-1-yl]-5-oxo-1,5-dihydro-4H-1,2,4-triazol-4-yl}-5-fluoropyridin-3-yl)-1,2-dihydro-3H-indol-3-one] | > 100000 | 740 | 1.3 | 0.56 | – | – | – | –
COc1cc(-n2cnn(C/C(=C/F)CN)c2=O)ccc1Br [Example 18, 2-[(2E)-2-(aminomethyl)-3-fluoroprop-2-en-1-yl]-4-(4-bromo-3-methoxyphenyl)-2,4-dihydro-3H-1,2,4-triazol-3-one hydrochloride] | – | – | – | – | > 100000 | 58 | 21 | 1.4
NC/C(=C\F)Cn1ncn(-c2ncc(Br)s2)c1=O [Example 41, 2-[(2E)-2-(aminomethyl)-3-fluoroprop-2-en-1-yl]-4-(5-bromo-1,3-thiazol-2-yl)-2,4-dihydro-3H-1,2,4-triazol-3-one hydrochloride] | – | – | – | – | 780 | 174 | 17 | 0.6
NC/C(=C\F)Cn1ncn(-c2cc(-c3ccc(-c4ccon4)cc3)ccn2)c1=O [Example 167, 2-[(2E)-2-(aminomethyl)-3-fluoroprop-2-en-1-yl]-4-{4-[4-(1,2-oxazol-3-yl)phenyl]pyridin-2-yl}-2,4-dihydro-3H-1,2,4-triazol-3-one] | > 100000 | > 10000 | < 30 | 1 | – | – | – | –
CC(=O)Nc1cc(-c2ccnc(-n3cnn(C/C(=C/F)CN)c3=O)c2)ccn1 [Example 168, N-(2′-{1-[(2E)-2-(aminomethyl)-3-fluoroprop-2-en-1-yl]-5-oxo-1,5-dihydro-4H-1,2,4-triazol-4-yl}-4,4′-bipyridin-2-yl)acetamide] | > 100000 | 159 | < 30 | 0.39 | – | – | – | –
Cc1cc(-c2ccc(-c3noc(C(C)C)n3)cc2)cnc1-n1cnn(C/C(=C/F)CN)c1=O [Example 142, 2-[(2E)-2-(aminomethyl)-3-fluoroprop-2-en-1-yl]-4-(3-methyl-5-{4-[5-(propan-2-yl)-1,2,4-oxadiazol-3-yl]phenyl}pyridin-2-yl)-2,4-dihydro-3H-1,2,4-triazol-3-one hydrochloride] | – | – | – | – | > 100000 | 4720 | 57 | 0.63
Cc1cc(-n2cnn(C/C(=C/F)CN)c2=O)ncc1-c1cccc(-c2nc[nH]n2)c1 [Example 158, 2-[(2E)-2-(aminomethyl)-3-fluoroprop-2-en-1-yl]-4-{4-methyl-5-[3-(1H-1,2,4-triazol-3-yl)phenyl]pyridin-2-yl}-2,4-dihydro-3H-1,2,4-triazol-3-one] | 9600 | 1940 | < 100 | 0.18 | – | – | – | –
Cc1cc(-n2cnn(C/C(=C/F)CN)c2=O)cnc1-c1ccc2sc(N)nc2c1 [Example 118, 4-[6-(2-amino-1,3-benzothiazol-5-yl)-5-methylpyridin-3-yl]-2-[(2E)-2-(aminomethyl)-3-fluoroprop-2-en-1-yl]-2,4-dihydro-3H-1,2,4-triazol-3-one hydrochloride] | – | – | – | – | > 100000 | 3040 | 1.7 | 0.34
CS(=O)(=O)c1ccc(-c2ccnc(-n3cnn(C/C(=C/F)CN)c3=O)c2)cc1 [Example 165, 2-[(2E)-2-(aminomethyl)-3-fluoroprop-2-en-1-yl]-4-{4-[4-(methylsulfonyl)phenyl]pyridin-2-yl}-2,4-dihydro-3H-1,2,4-triazol-3-one] | > 100000 | > 10000 | < 30 | 1.9 | – | – | – | –

Source: patent publication US11492335B2, “Aryl or heteroaryl triazolone derivatives or salts thereof, or pharmaceutical compositions comprising the same” (YUHAN CORPORATION, priority 2018, dated 2022)
